Measured values as given in PMC9246016 (Pharmaceutical Biology, 2022).
Blank lines part the entries; values can stand above or below the molecule they belong to.

Tests used:
[1] = molecular target: T1, recombinant human CYP2C8 (RHCYP2C8) (Homo sapiens, UniProt P10632); test: Inhibition of RHCYP2C8 yeast microsomes, probe substrate amodiaquine; conditions: for inhibitor intensity classification for CYP2C8: class by IC50, general rules (Testa 2007)
T1 sequence (P10632 1-490): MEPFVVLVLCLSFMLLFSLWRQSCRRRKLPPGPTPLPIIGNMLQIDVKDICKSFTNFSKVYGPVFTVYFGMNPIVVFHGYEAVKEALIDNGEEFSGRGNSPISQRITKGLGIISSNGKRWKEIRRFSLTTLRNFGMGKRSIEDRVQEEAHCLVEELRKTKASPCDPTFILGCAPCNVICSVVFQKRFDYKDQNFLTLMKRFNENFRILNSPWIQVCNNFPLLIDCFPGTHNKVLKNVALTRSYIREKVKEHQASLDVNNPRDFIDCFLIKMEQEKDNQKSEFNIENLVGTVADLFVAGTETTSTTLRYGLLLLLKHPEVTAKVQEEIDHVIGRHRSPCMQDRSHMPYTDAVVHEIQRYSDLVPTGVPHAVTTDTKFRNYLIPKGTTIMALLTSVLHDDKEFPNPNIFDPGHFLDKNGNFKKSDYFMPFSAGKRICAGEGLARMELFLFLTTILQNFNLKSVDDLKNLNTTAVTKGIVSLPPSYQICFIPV
Method: (§1) RHCYP2C8 and RHCYP2C9 yeast microsomes were extracted using the glass bead crushing method and differential centrifugation, with grinding 15 times by 0.5 g glass beads and centrifugation at 9,000 g for 20 min at 4 °C. The supernatant was then centrifuged at 100,000 g at 4 °C (BECKMAN COULTER Optima™ L-80 XP Ultracentrifuge) for 1 h, and the precipitation was RHCYP2C8 or RHCYP2C9 yeast microsome. Reconstituted with potassium phosphate buffer (pH 7.4), the microsome solution was collected and stored at −80 °C for subsequent examination. Protein concentrations of microsomes were determined using the Lowry method.
Amodiaquine and diclofenac are typical CYP2C8 and CYP2C9 probe substrates, respectively. […] The 0.4 mL incubation mixtures contained inhibitors (0–500 μmol/L), potassium phosphate buffer (pH 7.4) in common, and RHCYP2C8 (12.4 mg/mL) with amodiaquine or RHCYP2C9 (4.6 mg/mL) with diclofenac. […] The reactions were initiated by the addition of NADPH with pre-incubation 10 min in advance and carried out for 40 min.
(§2) The CYP2C8 sample treatment process was that incubation was terminated by adding 200 μL of methanol. Samples were centrifuged at 12,000 rpm for 10 min, and the supernatant was subjected to HPLC. The CYP2C9 sample treatment process was that each sample (100 μL) was spiked with 10 μL of carbamazepine (30 μg/mL). The mixture was then extracted with 500 μL ethyl acetate by vortexing for 3 min and centrifuged at 12,000 rpm for 10 min. […] The residue was dissolved in 100 μL methanol for HPLC analysis.

[2] = molecular target: recombinant human CYP2C9 (RHCYP2C9) (Homo sapiens, UniProt P11712); test: Inhibition of RHCYP2C9 yeast microsomes, probe substrate diclofenac; conditions: for inhibitor intensity classification for CYP2C9: class by IC50, general rules (Testa 2007)
Chain of recombinant human CYP2C9 (RHCYP2C9) (P11712 whole entry): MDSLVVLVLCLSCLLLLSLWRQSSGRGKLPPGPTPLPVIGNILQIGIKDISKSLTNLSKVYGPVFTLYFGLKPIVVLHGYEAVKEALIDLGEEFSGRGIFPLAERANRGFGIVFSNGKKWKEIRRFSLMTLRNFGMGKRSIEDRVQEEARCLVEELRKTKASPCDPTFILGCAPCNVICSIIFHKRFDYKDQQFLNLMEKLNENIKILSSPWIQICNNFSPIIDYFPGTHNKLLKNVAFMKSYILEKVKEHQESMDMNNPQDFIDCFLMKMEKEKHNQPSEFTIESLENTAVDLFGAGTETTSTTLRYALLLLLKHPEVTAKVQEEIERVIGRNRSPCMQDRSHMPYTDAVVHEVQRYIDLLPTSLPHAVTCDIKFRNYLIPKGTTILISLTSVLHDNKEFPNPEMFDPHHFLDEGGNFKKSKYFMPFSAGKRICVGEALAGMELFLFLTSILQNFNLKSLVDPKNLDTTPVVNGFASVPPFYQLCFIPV
Method: as §1
Amodiaquine and diclofenac are typical CYP2C8 and CYP2C9 probe substrates, respectively. […] The reactions were initiated by the addition of NADPH with pre-incubation 10 min in advance and carried out for 40 min.
as §2

[3] = Pharmacokinetics of ROS with single-dose GLT in rats; conditions: for CL/F / AUC(0-t) / Cmax / MRT / Tmax: ROS 10 mg/kg oral; for AUC(0-t) / Cmax / MRT / Tmax / half-life: male, Sprague-Dawley, rat, plasma, po, 10 mg/kg; for AUC(0-t): AUC0-t; for half-life: t1/2, ROS 10 mg/kg oral; for extension of MRT vs control: ROS 10 mg/kg
Method: (§3) All the experimental procedures involving animals were approved by the Ethics Committee of the China Pharmaceutical University (Nanjing, Jiangsu, China) (No.2021-09-020). Male Sprague-Dawley rats weighing 180–200 g were supplied by Zhejiang Experimental Animal Centre (Hangzhou, Zhejiang, China).
(§4) For the pharmacokinetic study in vivo, 36 rats were equally randomised to 6 groups, including control group (ROS 10 mg/kg + vehicle) group (A, D), ROS (10 mg/kg) + GLT (100 mg/kg) group (B, E), and ROS (10 mg/kg) + GLT (200 mg/kg) group (C, F). […] The ROS and GLT fraction powders were all homogenised in the vehicle (0.5% CMC-Na solution containing 1% Tween 80). For the single dose, Group A, B, and C were treated with vehicle (5 mL/kg), normal-dose GLT suspension (100 mg/kg), and high-dose GLT suspension (200 mg/kg) by oral gavage, respectively. Thirty-min later, ROS was orally administered to rats in each group. For multiple doses, Group D, E, and F were pre-treated with a vehicle, normal-dose GLT suspension, and high-dose GLT suspension, respectively, by oral gavage for 10 consecutive days. On the 11th day, half an hour after GLT administration, ROS was orally administered to rats in each group.
(§5) After centrifuging at 12,000 rpm for 5 min, the plasma samples (100 μL) were then spiked with 10 μL of the testosterone (100 μg/mL) and extracted with 500 μL of ethyl acetate by vortexing for 3 min. […] The residue was dissolved in 50 μL methanol for HPLC analysis.
(§6) The mobile phase was composed of acetonitrile:0.02 mol/L ammonium acetate (50:50, v/v, adjusted pH to 6.0 with acetic acid) for ROS or methanol:0.1 mol/L ammonium acetate (9:91, v/v, adjusted pH to 3.0 with acetic acid) for DEAQ or 0.1%TFA water: 0.1%TFA acetonitrile (49:51, v/v) for 4-OH DCF with the flow rate at 1.0 mL/min.
(§7) All raw data were analysed on the Shimadzu LabSolution software. The pharmacokinetic parameters were calculated using the Phoenix WinNonlin 6.4 software (Certara Inc., Princeton, NJ, USA). The data in this study were presented as mean ± SD for the individual groups. An unpaired Student’s t-test was used to determine any significant differences. A p-value less than 0.05 was considered statistically significant (*p < 0.05; **p < 0.01).

[4] = Pharmacokinetics of ROS after 10-day multiple-dose GLT in rats; format: in vivo, Sprague-Dawley rats; conditions: ROS 10 mg/kg oral; for AUC(0-t) / Cmax / MRT / Tmax / half-life: male, Sprague-Dawley, rat, plasma, po, 10 mg/kg
Method: as §3, §4, §5, §6, §7

CYP2C9 and CYP3A4 = system: CYP2C9 and CYP3A4; parameters: method as in He and Edeki [2004]; conditions: inhibitory effects appear negligible; ref He and Edeki [2004]; cited from earlier work
CYP2C8 = system: CYP2C8; parameters: method as in Unger and Frank [2004]; conditions: ref Unger and Frank [2004]; read-out: IC50 for CYP2C8 (previous finding); cited from earlier work
[5] = multiple-dose GLT 100 mg/kg for 10 days
[6] = multiple-dose GLT 200 mg/kg for 10 days

Molecule: COc1cc(-c2oc3cc(O)cc(O)c3c(=O)c2O)ccc1O [isorhamnetin]
- IC50 [1]: 11.9 µM
- inhibitor intensity classification for CYP2C8 [1]: weak (weak inhibitors are over 10 μmol/L)
- IC50 [2]: 4.59 µM
- inhibitor intensity classification for CYP2C9 [2]: moderate (moderate inhibitors are between 1 and 10 μmol/L)

- CL/F ([3]; control (vehicle), single dose): 16.46 ± 1.91 mL/h
- CL/F ([3]; single-dose GLT 100 mg/kg): 14.58 ± 2.12 mL/h
- CL/F ([3]; single-dose GLT 200 mg/kg): 13.97 ± 3.43 mL/h
- AUC(0-t) ([3]; control (vehicle), single dose): 117 ± 12.2 µg·h/mL
- AUC(0-t) ([3]; single-dose GLT 100 mg/kg): 130 ± 24.3 µg·h/mL
- AUC(0-t) ([3]; single-dose GLT 200 mg/kg): 139 ± 40.6 µg·h/mL
- Cmax ([3]; control (vehicle), single dose): 29100 ± 5980 ng/mL
- Cmax ([3]; single-dose GLT 100 mg/kg): 28800 ± 5860 ng/mL
- Cmax ([3]; single-dose GLT 200 mg/kg): 26000 ± 6990 ng/mL
- MRT ([3]; control (vehicle), single dose): 3.02 ± 0.28 h
- MRT ([3]; single-dose GLT 100 mg/kg): 3.66 ± 0.63 h
- MRT ([3]; single-dose GLT 200 mg/kg): 4.24 ± 1.04 h
- Tmax ([3]; control (vehicle), single dose): 0.9 ± 0.34 h
- Tmax ([3]; single-dose GLT 100 mg/kg): 1.01 ± 0.65 h
- Tmax ([3]; single-dose GLT 200 mg/kg): 0.8 ± 0.26 h
- half-life ([3]; control (vehicle), single dose): 2.14 ± 0.38 h
- half-life ([3]; single-dose GLT 100 mg/kg): 2.79 ± 0.37 h
- half-life ([3]; single-dose GLT 200 mg/kg): 3.26 ± 1.08 h
- extension of MRT vs control ([3]; single-dose GLT 100 mg/kg): 21%
- extension of MRT vs control ([3]; single-dose GLT 200 mg/kg): 40%
- CL/F ([4]; control (vehicle 10 days)): 13.92 ± 3.04 mL/h
- CL/F [4, 5]: 25.54 ± 9.02 mL/h
- CL/F [4, 6]: 30.00 ± 8.52 mL/h
- AUC(0-t) ([4]; control (vehicle 10 days)): 140 ± 45.5 µg·h/mL
- Cmax ([4]; control (vehicle 10 days)): 38700 ± 9730 ng/mL
- MRT ([4]; control (vehicle 10 days)): 3.27 ± 0.65 h
- Tmax ([4]; control (vehicle 10 days)): 0.79 ± 0.4 h
- half-life ([4]; control (vehicle 10 days)): 2.75 ± 0.7 h
- AUC(0-t) [4, 5]: 84.6 ± 39.9 µg·h/mL
- Cmax [4, 5]: 28500 ± 5560 ng/mL
- MRT [4, 5]: 2.95 ± 1.13 h
- Tmax [4, 5]: 0.54 ± 0.25 h
- half-life [4, 5]: 1.99 ± 0.44 h
- AUC(0-t) [4, 6]: 66.6 ± 15.9 µg·h/mL
- Cmax [4, 6]: 28400 ± 4640 ng/mL
- MRT [4, 6]: 2.13 ± 0.28 h
- Tmax [4, 6]: 0.37 ± 0.13 h
- half-life [4, 6]: 1.68 ± 0.35 h
Molecule: CN(CCOc1ccc(CC2SC(=O)NC2=O)cc1)c1ccccn1 (centres unmarked) [ROS, Rosiglitazone]

Molecule: ginkgolide B
- concentrations at which effects are pronounced (CYP2C9 and CYP3A4): greater than 100 μmol/L

- IC50 [1]: 7.67 µM
- IC50 [2]: 7.57 µM
Molecule: O=c1c(O)c(-c2ccc(O)cc2)oc2cc(O)cc(O)c12 [kaempferol]
- inhibitor intensity classification for CYP2C8 [1]: moderate (moderate inhibitors are between 1 and 10 μmol/L)
- inhibitor intensity classification for CYP2C9 [2]: moderate (moderate inhibitors are between 1 and 10 μmol/L)

Molecule: O=c1c(O)c(-c2ccc(O)c(O)c2)oc2cc(O)cc(O)c12 [quercetin]
- inhibitor intensity classification for CYP2C8 [1]: moderate (moderate inhibitors are between 1 and 10 μmol/L)
- inhibitor intensity classification for CYP2C9 [2]: weak (weak inhibitors are over 10 μmol/L)
